Measured values from PMC4854315, “Discovery of a novel allosteric inhibitor-binding site in ERK5: comparison with the canonical kinase hinge ATP-binding site” (Acta Crystallographica. Section D, Structural Biology, 2016).

Assays:
Experiment in all cases: Z'-LYTE kinase panel
Type in all cases: biochemical
[1] = target: T1, RPS6KB1 (p70S6K) (Homo sapiens, UniProt P23443)
T1 construct: purchased ThermoFisher (SelectScreen, Z'-LYTE)
Outline: (§1)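 Single-point screen, 10 µM compound; % inhibition read by Z′-LYTE (FRET-based) format per standard protocol; 225-kinase panel.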

[2] = target: T2, MAPKAPK5 (PRAK) (Homo sapiens, UniProt Q8IW41)
T2 construct: purchased ThermoFisher (SelectScreen, Z'-LYTE)
T2 sequence (Q8IW41 1-473): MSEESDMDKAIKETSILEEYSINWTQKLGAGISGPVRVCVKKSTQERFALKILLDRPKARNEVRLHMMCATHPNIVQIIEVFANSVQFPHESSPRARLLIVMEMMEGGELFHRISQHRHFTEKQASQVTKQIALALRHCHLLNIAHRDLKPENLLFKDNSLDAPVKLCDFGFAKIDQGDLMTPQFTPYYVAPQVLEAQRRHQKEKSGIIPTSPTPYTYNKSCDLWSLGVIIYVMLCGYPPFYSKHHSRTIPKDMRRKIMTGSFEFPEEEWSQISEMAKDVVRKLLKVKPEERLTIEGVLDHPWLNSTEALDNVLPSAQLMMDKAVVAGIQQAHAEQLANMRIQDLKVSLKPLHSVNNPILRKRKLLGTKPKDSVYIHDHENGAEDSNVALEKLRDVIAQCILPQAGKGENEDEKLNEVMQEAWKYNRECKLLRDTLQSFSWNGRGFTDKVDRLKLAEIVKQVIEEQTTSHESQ
Outline: as §1

[3] = target: T3, CLK2 (Homo sapiens, UniProt P49760)
T3 construct: purchased ThermoFisher (SelectScreen, Z'-LYTE)
Outline: as §1

[4] = target: T4, TYRO3 (RSE) (Homo sapiens, UniProt Q06418)
T4 construct: purchased ThermoFisher (SelectScreen, Z'-LYTE)
T4 sequence (Q06418 41-890): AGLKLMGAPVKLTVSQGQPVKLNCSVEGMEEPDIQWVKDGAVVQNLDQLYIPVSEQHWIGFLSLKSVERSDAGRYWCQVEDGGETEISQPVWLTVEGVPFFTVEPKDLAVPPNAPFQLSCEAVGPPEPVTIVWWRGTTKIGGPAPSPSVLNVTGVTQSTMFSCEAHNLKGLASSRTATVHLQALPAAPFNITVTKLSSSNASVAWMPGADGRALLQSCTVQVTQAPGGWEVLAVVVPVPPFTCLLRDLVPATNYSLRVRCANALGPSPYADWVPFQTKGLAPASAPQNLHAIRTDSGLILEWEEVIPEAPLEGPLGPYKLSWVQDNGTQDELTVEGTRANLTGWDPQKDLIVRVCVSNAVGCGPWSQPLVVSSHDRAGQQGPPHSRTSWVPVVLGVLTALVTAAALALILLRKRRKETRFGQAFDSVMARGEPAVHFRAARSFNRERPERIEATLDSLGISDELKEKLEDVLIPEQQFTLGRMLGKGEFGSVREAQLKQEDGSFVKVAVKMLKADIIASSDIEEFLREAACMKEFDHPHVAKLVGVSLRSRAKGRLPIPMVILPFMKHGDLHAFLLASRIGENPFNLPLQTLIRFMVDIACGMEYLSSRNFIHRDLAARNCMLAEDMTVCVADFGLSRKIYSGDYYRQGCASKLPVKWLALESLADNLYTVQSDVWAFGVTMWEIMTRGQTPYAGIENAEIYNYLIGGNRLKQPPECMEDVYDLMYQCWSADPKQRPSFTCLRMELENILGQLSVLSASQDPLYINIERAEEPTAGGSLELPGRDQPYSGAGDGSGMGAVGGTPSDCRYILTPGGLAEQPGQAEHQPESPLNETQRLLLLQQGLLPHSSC
Outline: as §1

[5] = target: T5, CDK5/p35 (Homo sapiens, UniProt Q00535)
T5 construct: purchased ThermoFisher (SelectScreen, Z'-LYTE)
Outline: as §1

[6] = target: T6, TYK2 (Homo sapiens, UniProt P29597); conditions: 10 µM compound, ATP Km app
T6 construct: purchased ThermoFisher (SelectScreen, Z'-LYTE)
Outline: as §1

[7] = target: T7, HIPK3 (YAK1) (Homo sapiens, UniProt Q9H422)
T7 construct: purchased ThermoFisher (SelectScreen, Z'-LYTE)
Outline: as §1

[8] = target: T8, GSK3A (GSK3 alpha) (Homo sapiens, UniProt P49840); conditions: 10 µM compound, ATP Km app
T8 construct: purchased ThermoFisher (SelectScreen, Z'-LYTE)
Outline: as §1

[9] = target: T9, MAP2K1 (MEK1) (Homo sapiens, UniProt Q02750); conditions: 10 µM compound; ATP 100
T9 construct: purchased ThermoFisher (SelectScreen, Z'-LYTE)
Outline: as §1

[10] = target: T10, CDC42 BPA (MRCKA) (Homo sapiens, UniProt Q5VT25)
T10 construct: purchased ThermoFisher (SelectScreen, Z'-LYTE)
Outline: as §1

[11] = target: T11, FYN (Homo sapiens, UniProt P06241)
T11 construct: purchased ThermoFisher (SelectScreen, Z'-LYTE)
Outline: as §1

[12] = target: T12, DYRK3 (Homo sapiens, UniProt O43781)
T12 construct: purchased ThermoFisher (SelectScreen, Z'-LYTE)
T12 sequence (O43781 1-588): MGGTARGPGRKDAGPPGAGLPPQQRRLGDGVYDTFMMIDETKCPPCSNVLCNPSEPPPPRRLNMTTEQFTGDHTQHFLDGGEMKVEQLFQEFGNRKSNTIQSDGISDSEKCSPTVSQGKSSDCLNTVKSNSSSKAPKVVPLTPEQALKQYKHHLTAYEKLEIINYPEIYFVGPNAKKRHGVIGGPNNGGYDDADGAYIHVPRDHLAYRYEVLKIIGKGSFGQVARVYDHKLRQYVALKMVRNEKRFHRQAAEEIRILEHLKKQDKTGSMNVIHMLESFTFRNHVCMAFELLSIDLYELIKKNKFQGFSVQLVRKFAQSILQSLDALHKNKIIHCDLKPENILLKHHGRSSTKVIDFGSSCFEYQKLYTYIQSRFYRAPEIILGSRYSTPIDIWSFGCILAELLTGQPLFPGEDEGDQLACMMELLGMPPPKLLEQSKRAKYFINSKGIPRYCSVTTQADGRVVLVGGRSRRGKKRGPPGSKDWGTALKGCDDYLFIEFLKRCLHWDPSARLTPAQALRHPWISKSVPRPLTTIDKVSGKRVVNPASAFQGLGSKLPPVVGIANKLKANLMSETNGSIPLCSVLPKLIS
Outline: as §1

T7 sequence (Q9H422 whole entry): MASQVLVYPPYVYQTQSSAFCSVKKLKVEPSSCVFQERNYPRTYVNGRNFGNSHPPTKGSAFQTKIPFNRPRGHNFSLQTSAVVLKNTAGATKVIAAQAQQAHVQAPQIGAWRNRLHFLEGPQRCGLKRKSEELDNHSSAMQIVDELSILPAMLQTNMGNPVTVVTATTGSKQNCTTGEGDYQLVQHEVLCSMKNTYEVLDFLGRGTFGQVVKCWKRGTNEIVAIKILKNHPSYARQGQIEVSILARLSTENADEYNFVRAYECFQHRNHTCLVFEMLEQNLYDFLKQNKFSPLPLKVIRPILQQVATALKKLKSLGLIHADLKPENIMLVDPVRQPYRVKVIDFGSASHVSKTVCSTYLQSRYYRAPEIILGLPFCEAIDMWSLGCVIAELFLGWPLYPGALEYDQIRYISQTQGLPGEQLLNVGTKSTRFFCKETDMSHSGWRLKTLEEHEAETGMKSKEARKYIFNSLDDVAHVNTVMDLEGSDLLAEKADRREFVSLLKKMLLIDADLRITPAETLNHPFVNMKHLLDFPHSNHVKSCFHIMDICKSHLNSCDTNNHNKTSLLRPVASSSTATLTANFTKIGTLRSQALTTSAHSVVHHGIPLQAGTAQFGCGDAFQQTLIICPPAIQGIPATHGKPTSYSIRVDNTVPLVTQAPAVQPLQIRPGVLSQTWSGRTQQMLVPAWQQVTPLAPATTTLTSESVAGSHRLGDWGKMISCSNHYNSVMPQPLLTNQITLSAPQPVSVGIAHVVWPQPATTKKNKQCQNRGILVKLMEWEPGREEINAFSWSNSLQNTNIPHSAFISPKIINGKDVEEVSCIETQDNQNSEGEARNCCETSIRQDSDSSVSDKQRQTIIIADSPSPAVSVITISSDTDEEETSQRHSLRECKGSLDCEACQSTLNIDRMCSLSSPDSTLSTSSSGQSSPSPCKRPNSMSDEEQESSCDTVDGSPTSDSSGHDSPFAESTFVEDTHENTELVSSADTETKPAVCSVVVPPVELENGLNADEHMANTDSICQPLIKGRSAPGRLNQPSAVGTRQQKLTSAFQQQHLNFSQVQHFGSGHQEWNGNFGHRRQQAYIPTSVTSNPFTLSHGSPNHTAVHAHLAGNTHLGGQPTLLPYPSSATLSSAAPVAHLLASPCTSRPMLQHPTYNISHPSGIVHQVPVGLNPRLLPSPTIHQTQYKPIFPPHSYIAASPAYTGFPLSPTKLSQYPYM
T3 sequence (P49760 whole entry): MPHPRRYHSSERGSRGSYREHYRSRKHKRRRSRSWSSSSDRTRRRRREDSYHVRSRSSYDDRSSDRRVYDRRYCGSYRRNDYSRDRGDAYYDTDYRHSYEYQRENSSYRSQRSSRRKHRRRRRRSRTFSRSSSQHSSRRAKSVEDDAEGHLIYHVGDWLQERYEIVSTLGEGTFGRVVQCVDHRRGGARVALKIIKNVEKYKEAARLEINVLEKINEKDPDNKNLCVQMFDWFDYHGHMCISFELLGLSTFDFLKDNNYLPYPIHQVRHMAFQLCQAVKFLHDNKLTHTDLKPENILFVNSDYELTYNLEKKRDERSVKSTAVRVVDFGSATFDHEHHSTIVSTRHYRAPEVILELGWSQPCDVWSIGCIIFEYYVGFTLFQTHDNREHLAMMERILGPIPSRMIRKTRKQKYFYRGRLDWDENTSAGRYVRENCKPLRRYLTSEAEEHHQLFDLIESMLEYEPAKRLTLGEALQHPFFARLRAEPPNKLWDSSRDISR
T8 sequence (P49840 whole entry): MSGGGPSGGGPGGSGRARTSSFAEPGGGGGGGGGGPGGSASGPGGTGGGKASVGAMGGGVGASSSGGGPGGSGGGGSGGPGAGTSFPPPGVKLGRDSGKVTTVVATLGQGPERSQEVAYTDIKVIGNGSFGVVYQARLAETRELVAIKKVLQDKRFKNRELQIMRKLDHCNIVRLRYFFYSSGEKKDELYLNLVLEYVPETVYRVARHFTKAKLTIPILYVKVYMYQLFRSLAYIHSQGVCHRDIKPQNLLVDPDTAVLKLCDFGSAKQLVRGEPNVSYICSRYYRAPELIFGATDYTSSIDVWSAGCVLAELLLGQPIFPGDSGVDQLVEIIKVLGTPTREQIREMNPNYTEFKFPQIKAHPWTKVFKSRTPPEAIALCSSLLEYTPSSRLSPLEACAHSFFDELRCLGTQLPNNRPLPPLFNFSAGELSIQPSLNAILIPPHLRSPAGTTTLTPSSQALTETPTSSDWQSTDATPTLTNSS
T1 sequence (P23443 whole entry): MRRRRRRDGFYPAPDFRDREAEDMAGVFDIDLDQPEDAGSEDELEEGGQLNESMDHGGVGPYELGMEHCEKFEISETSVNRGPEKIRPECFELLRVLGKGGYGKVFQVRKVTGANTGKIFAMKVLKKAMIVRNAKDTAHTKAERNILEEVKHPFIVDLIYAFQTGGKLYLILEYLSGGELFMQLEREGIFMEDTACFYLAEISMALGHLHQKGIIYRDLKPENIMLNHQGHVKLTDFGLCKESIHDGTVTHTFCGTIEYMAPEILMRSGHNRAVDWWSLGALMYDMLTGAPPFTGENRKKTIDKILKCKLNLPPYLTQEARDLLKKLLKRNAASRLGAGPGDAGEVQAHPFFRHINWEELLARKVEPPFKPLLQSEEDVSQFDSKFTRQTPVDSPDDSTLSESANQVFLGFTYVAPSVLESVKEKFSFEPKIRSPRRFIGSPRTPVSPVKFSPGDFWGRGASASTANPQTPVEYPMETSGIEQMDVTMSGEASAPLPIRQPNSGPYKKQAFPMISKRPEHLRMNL
T6 sequence (P29597 whole entry): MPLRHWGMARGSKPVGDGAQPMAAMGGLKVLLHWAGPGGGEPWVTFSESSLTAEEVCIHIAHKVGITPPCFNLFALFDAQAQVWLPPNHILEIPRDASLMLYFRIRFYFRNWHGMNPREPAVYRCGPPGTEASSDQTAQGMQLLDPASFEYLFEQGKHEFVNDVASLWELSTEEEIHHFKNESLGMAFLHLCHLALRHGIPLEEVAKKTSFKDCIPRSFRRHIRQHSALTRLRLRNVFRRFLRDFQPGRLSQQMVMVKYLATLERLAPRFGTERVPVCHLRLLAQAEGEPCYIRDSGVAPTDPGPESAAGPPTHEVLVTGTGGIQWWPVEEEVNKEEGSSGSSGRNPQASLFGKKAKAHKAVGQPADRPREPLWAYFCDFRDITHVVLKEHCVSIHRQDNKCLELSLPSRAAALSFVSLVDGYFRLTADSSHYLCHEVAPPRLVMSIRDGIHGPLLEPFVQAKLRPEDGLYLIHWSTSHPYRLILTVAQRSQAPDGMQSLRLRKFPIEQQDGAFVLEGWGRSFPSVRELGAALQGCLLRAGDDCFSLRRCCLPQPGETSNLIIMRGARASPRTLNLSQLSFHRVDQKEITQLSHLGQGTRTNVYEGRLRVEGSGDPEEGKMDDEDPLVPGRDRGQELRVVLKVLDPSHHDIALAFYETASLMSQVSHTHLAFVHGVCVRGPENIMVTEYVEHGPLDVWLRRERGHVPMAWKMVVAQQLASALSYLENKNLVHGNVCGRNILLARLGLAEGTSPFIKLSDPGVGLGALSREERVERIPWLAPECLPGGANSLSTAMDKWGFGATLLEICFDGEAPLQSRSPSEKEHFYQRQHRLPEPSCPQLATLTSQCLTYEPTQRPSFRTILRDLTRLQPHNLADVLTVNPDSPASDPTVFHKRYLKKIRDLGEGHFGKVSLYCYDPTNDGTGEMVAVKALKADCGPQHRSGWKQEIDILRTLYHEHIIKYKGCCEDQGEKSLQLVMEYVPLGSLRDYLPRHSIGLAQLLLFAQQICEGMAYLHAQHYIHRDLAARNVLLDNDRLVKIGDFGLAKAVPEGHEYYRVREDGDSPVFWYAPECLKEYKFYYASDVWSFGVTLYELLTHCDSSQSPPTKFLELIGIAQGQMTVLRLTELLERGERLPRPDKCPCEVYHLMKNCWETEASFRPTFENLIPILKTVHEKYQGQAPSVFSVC
T11 sequence (P06241 whole entry): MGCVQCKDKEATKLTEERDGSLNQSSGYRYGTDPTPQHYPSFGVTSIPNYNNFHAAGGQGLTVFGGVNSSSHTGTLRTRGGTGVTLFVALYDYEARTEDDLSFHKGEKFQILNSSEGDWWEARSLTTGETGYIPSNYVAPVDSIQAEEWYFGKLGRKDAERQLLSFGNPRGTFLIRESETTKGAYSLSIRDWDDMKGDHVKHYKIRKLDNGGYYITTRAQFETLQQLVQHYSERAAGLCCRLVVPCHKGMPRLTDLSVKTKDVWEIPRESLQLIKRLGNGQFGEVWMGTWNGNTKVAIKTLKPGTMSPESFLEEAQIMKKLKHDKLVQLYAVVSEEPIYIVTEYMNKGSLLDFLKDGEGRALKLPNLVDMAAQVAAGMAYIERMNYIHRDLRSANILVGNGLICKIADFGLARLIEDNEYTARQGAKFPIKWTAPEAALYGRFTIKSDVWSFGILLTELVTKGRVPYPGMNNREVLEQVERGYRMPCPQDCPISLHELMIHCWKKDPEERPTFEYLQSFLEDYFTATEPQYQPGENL
T5 sequence (Q00535 whole entry): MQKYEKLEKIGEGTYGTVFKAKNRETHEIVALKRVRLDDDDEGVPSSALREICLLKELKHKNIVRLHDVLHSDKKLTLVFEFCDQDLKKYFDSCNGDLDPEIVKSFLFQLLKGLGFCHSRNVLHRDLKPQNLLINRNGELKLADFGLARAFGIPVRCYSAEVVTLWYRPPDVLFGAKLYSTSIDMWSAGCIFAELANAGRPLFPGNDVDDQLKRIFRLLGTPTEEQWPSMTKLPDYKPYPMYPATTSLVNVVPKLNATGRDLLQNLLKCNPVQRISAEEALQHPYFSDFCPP
T5 sequence (Q15078 whole entry partner): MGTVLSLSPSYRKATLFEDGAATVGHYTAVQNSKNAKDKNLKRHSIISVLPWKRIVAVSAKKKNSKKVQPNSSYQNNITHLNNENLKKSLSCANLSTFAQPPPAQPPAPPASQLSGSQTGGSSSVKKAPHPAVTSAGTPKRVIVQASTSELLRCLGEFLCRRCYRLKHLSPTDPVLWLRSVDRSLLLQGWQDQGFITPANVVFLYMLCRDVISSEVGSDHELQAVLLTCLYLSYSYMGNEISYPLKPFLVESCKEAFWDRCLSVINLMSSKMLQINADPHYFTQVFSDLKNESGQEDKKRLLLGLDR

Row | Molecule | inhibition at 10 µM [1] | inhibition at 10 µM [2] | inhibition at 10 µM [3] | inhibition at 10 µM [4] | inhibition at 10 µM [5] | inhibition at 10 µM [6] | inhibition at 10 µM [7] | inhibition at 10 µM [8] | inhibition at 10 µM [9] | inhibition at 10 µM [10] | inhibition at 10 µM [11] | inhibition at 10 µM [12] | also measured
1 | Cc1ncc(-c2nc(Nc3ccc(C(=O)NCCN4CCCCC4)cc3)ncc2F)n1C(C)C [Compound 3] | 87% | 45% | 92% | 92% | 106% | 101% | 88% | 98% | 97% | 17% | 74% | 93% | 
2 | Cc1cc(Nc2nc(N)nn2C(=O)NC(C)C)ccc1Cl [Compound 5] | 7% | -3.49% | 39% | 14% | 71% | > 80% | 6.56% | > 80% | 8.53% | 5% | 15% | 0.141% | TYK2 % Inhibition ([6]; listed as SN1109056190, 10 µM): 94%; GSK3A (GSK3 alpha) % Inhibition ([8]; listed as SN1109056190, 10 µM): 82%
3 | XMD8-92 [Compound 2, reference compound] |  |  |  |  |  |  |  |  |  |  |  |  | RPS6KB1 (p70S6K) % Inhibition ([1]; 10 µM compound, ATP Km app): 5%; MAPKAPK5 (PRAK) % Inhibition ([2]; 10 µM compound, ATP Km app): 11%; CLK2 % Inhibition ([3]; 10 µM compound, ATP Km app): 6%; TYRO3 (RSE) % Inhibition ([4]; 10 µM compound, ATP Km app): 9%; CDK5/p35 % Inhibition ([5]; 10 µM compound, ATP Km app): 77%; TYK2 % Inhibition [6]: 36%; HIPK3 (YAK1) % Inhibition ([7]; 10 µM compound, ATP Km app): 1.8%; GSK3A (GSK3 alpha) % Inhibition [8]: 35%; MAP2K1 (MEK1) % Inhibition [9]: 17%; CDC42 BPA (MRCKA) % Inhibition ([10]; 10 µM compound, ATP Km app): -2.25%; FYN % Inhibition ([11]; 10 µM compound, ATP Km app): -14%; DYRK3 % Inhibition ([12]; 10 µM compound, ATP Km app): 31%
